Key:
[1] = test system: adult patients with type 1 diabetes mellitus (overall and CKD cohorts); assay: Pooled inTandem1 and inTandem2 double-blind clinical studies, sotagliflozin adjunct to optimized insulin; format: in vivo, human; details: for No Weight Gain at Week 52, HbA1c <7.0%: Absolute difference in % / No Weight Gain at Week 52, reduction in HbA1c ≥0.5%: Absolute difference in % / No Weight Gain at Week 52: % with absolute reduction in HbA1c ≥0.5% / No Weight Gain at Week 52: Percentage HbA1c <7.0% / Weight, LS Mean (SE) kg: Percent Change (%) from Baseline at Week 24 / Weight, LS Mean (SE) kg: Percent Change (%) from Baseline at Week 52 / Weight, LS Mean (SE): Treatment Comparison vs. PBO, Week 24 / Weight, LS Mean (SE): Treatment Comparison vs. PBO, Week 52 / Any TEAE, n (%) / Diarrhea, n (%) / Genital mycotic infection, n (%) / HbA1c change from Baseline, Week 52 Treatment Comparison LS Mean (SE), %: overall cohort; for HbA1c change from Baseline, Week 24 Treatment Comparison LS Mean (SE), % / HbA1c change from Baseline, Week 52 Treatment Comparison LS Mean (SE), %: vs placebo
Protocol: The efficacy of sotagliflozin as adjunct therapy in adult patients with type 1 diabetes mellitus who have inadequate glycemic control with insulin therapy was evaluated in two multicenter, double-blind clinical studies named “in Tandem1” and “in Tandem2”. Patients were randomized into three treatment groups: those treated with sotagliflozin 200 mg/day, those treated with sotagliflozin 400 mg/day; and those treated with placebo.
Details of the in Tandem1 study have been reported. See, e.g., Buse, J. B., et al., “Sotagliflozin in Combination With Optimized Insulin Therapy in Adults With Type 1 Diabetes: The North American in Tandem1 Study” Diabetes Care 2018; 41: 1970-1980. Details of the in Tandem2 study have also been reported. See, e.g., Danne. T., et al., “HbA and Hypoglycemia 1c Reductions at 24 and 52 Weeks With Sotagliflozin in Combination With Insulin in Adults With Type 1 Diabetes: The European in Tandem2 Study” Diabetes Care 2018; 41: 1981-1990. Both studies included men and nonpregnant women aged≥18 years with T1D using either multiple daily injections (MDI) or subcutaneous insulin infusion (SCII) for insulin delivery and whose HbA1C was 7.0-11.0% at screening. Patients with β-hydroxybutyrate (BHB) levels>0.6 mmol/L at screening were excluded.
In both studies, insulin therapy was optimized for six weeks prior to randomization, and optimized insulin continued until the study conclusion at week 52. After a two-week placebo run-in, patients were randomly assigned to double-blind treatment with sotagliflozin 200 or 400 mg or placebo for 52 weeks. Insulin optimization, which refers to the adjustment of insulin to meet standard-of-care glycemic targets, starting six weeks prior to randomization and continued for the entire study. An independent insulin dose monitoring committee (IDMC) assessed standard-of-care adherence and provided feedback to the principal investigator if deviations from standard of care were observed prior to week 24. HbA1c was masked to study staff during this period. Between week 24 and 52, insulin optimization continued without input from the IDMC, and HbA1c values were unmasked. Safety was monitored for 30 days after the last dose of study medication.
The primary endpoint of both studies was the change from baseline to week 24 in glycated hemoglobin A1C of either dose of sotagliflozin (400 mg or 200 mg) treatment group compared to placebo. Other endpoints included the change from baseline of sotagliflozin versus placebo in: the proportion of patients with A1C<7.0% and no episode of severe hypoglycemia and no episode of DKA; body weight, bolus insulin dose, fasting plasma glucose (FPG), diabetes treatment satisfaction questionnaire status (DTSQs) score; and Diabetes Distress Screening Scale (DDS2) questionnaire score.
Efficacy analyses were based on the mITT (modified Intent-to-Treat) population. Primary efficacy analyses were conducted based on data collected during the Core Treatment Period (Baseline through and including the week 24 visit assessments). As shown below in Table 2, sotagliflozin achieved its primary endpoint by leading to statistically significant lower A1C levels for both doses when compared to placebo in the pooled in Tandem1/in Tandem2 study results after the core treatment and long-term extension periods.

[2] = test system: patients with type 2 diabetes mellitus and CKD (eGFR 25 to 60 ml per minute per 1.73 m^2); format: in vivo
Source text: The cardiorenal protective properties of sotagliflozin in patients with type 2 diabetes informed research that led to the present invention. […] The primary end point was changed during the trial to the composite of the total number of deaths from cardiovascular causes, hospitalizations for heart failure, and urgent visits for heart failure.
Of 19.188 patients screened, 10,584 were enrolled, with 5,292 assigned to the sotagliflozin group and 5,292 assigned to the placebo group and followed for a median of 16 months. The rate of primary end-point events was 5.6 events per 100 patient-years in the sotagliflozin group and 7.5 events per 100 patient-years in the placebo group: hazard ratio, 0.74; 95% confidence interval (CI), 0.63 to 0.88; P<0.001. The rate of deaths from cardiovascular causes per 100 patient-years was 2.2 with sotagliflozin and 2.4 with placebo (hazard ratio, 0.90; 95% CI, 0.73 to 1.12; P=0.35). For the original coprimary end point of the first occurrence of death from cardiovascular causes, nonfatal myocardial infarction, or nonfatal stroke, the hazard ratio was 0.84 (95% CI, 0.72 to 0.99); for the original coprimary end point of the first occurrence of death from cardiovascular causes or hospitalization for heart failure, the hazard ratio was 0.77 (95% CI, 0.66 to 0.91). Diarrhea, genital mycotic infections and volume depletion were more common with sotagliflozin than with placebo.
Table 1 provides the number and type of cardiorenal events observed during the trial, wherein each of the sotagliflozin and placebo groups contained 5292 patients.

[3] = 200 mg/day vs placebo, CKD Cohort, 52 weeks
[4] = 200 mg/day vs placebo, Overall Cohort, 52 weeks
[5] = 200 mg/day, CKD Cohort N = 85, 52 weeks
[6] = 200 mg/day, overall cohort N = 524, positively adjudicated, through 52 Weeks
[7] = 400 mg/day vs placebo, CKD Cohort, 52 weeks
[8] = 400 mg/day vs placebo, Overall Cohort, 52 weeks
[9] = 400 mg/day, CKD Cohort N = 76, 52 weeks
[10] = 400 mg/day, overall cohort N = 525, positively adjudicated, through 52 Weeks
[11] = T2D and CKD, 5292 patients per group

## CCOc1ccc(Cc2cc([C@@H]3O[C@H](SC)[C@@H](O)[C@H](O)[C@H]3O)ccc2Cl)cc1 [sotagliflozin, (2S,3R,4R,5S,6R)-2-(4-chloro-3-(4-ethoxybenzyl)phenyl)-6-(methylthio)tetrahydro-2H-pyran-3,4,5-triol]
[1]; 200 mg/day vs PBO
  No Weight Gain at Week 52, HbA1c <7.0%: Absolute difference in %: 12.6%
  No Weight Gain at Week 52, reduction in HbA1c ≥0.5%: Absolute difference in %: 14.9%
[1]; [3]
  DKA, HR (95% CI): 3.2 (0.4, 29.0)
  Severe hypoglycemia, HR (95% CI): 0.34 (0.13, 0.91)
[1]; [4]
  DKA, HR (95% CI): 15.0 (2.0, 113.3)
  Severe hypoglycemia, HR (95% CI): 0.76 (0.47, 1.22)
[1]; [5]
  DKA, n (%): 4 (4.7) n (%)
  Severe hypoglycemia, n (%): 6 (7.1) n (%)
[1]; 200 mg/day
  No Weight Gain at Week 52: % with absolute reduction in HbA1c ≥0.5%: 23.7%
  No Weight Gain at Week 52: Percentage HbA1c <7.0%: 21.8%
  Weight, LS Mean (SE) kg: Percent Change (%) from Baseline at Week 24: −1.70 (0.137) %
  Weight, LS Mean (SE) kg: Percent Change (%) from Baseline at Week 52: −2.31 (0.208) %
  Weight, LS Mean (SE): Treatment Comparison vs. PBO, Week 24: −2.17 (0.188) %
  Weight, LS Mean (SE): Treatment Comparison vs. PBO, Week 52: −3.21 (0.291) %
  HbA1c change from Baseline, Week 52 Treatment Comparison LS Mean (SE), %: −0.23%
[1]; [6]
  DKA, n (%): 15 (2.9) n (%)
  Severe hypoglycemia, n (%): 30 (5.7) n (%)
[1]; 200 mg/day, overall cohort n = 524
  HbA1c change from Baseline, Week 24 Treatment Comparison LS Mean (SE), %: −0.36%
[1]; 200 mg/day, through 52 Weeks
  Any TEAE, n (%): 393 (75.0) n (%)
  Diarrhea, n (%): 34 (6.5) n (%)
  Genital mycotic infection, n (%): 48 (9.2) n (%)
[1]; 400 mg/day vs PBO
  No Weight Gain at Week 52, HbA1c <7.0%: Absolute difference in %: 17.0%
  No Weight Gain at Week 52, reduction in HbA1c ≥0.5%: Absolute difference in %: 20.0%
[1]; [7]
  DKA, HR (95% CI): 1.9 (0.2, 20.8)
  Severe hypoglycemia, HR (95% CI): 0.2 (0.06, 0.70)
[1]; [8]
  DKA, HR (95% CI): 20.3 (2.7, 151.2)
  Severe hypoglycemia, HR (95% CI): 0.58 (0.35, 0.97)
[1]; [9]
  DKA, n (%): 2 (2.6) n (%)
  Severe hypoglycemia, n (%): 3 (3.9) n (%)
[1]; 400 mg/day
  No Weight Gain at Week 52: % with absolute reduction in HbA1c ≥0.5%: 28.8%
  No Weight Gain at Week 52: Percentage HbA1c <7.0%: 26.1%
  Weight, LS Mean (SE) kg: Percent Change (%) from Baseline at Week 24: −2.55 (0.137) %
  Weight, LS Mean (SE) kg: Percent Change (%) from Baseline at Week 52: −3.33 (0.209) %
  Weight, LS Mean (SE): Treatment Comparison vs. PBO, Week 24: −3.02 (0.188) %
  Weight, LS Mean (SE): Treatment Comparison vs. PBO, Week 52: −4.24 (0.291) %
  HbA1c change from Baseline, Week 52 Treatment Comparison LS Mean (SE), %: −0.32%
[1]; [10]
  DKA, n (%): 20 (3.8) n (%)
  Severe hypoglycemia, n (%): 23 (4.4) n (%)
[1]; 400 mg/day, overall cohort n = 525
  HbA1c change from Baseline, Week 24 Treatment Comparison LS Mean (SE), %: −0.38%
[1]; 400 mg/day, through 52 Weeks
  Any TEAE, n (%): 390 (74.3) n (%)
  Diarrhea, n (%): 46 (8.8) n (%)
  Genital mycotic infection, n (%): 63 (12.0) n (%)
[1]; patients with BMI≥27 kg/m^2 compared to the lower BMI subgroup, Week 24
  efficacy (A1C, body weight, DTSQ change from baseline) by BMI subgroup: systematically better
[1]; sotagliflozin compared to placebo in the CKD cohort
  relative risk of severe hypoglycemia: lower
[1]; sotagliflozin relative to placebo in the CKD cohort
  relative risk of DKA: not significantly higher
[1]; to a similar extent as the overall cohort
  A1C and BW in the CKD subgroup: significantly reduced
[2]; [11]
  50% decline in eGFR (sustained or last value), n (%): 75 (1.4) n (%)
  Chronic dialysis or transplant, n (%): 15 (0.3) n (%)
  End-stage kidney disease, n (%): 50 (0.9) n (%)
  Renal death, n (%): 8 (0.2) n (%)
  eGFR <15 mL/min/m^2 (sustained or last value), n (%): 41 (0.8) n (%)
[2]; cardiorenal composite, T2D and CKD, 5292 patients per group, median follow-up 16 months
  First event in composite, n (%): 239 (4.5) n (%)
[2]; compared to placebo, FIG. 1
  risk of cardiorenal endpoints: significantly reduced
[2]; composite of deaths from cardiovascular causes, hospitalizations for heart failure, urgent visits for heart failure, median 16 months
  rate of primary end-point events: 5.6 events per 100 patient-years
[2]; human, in vivo
  Diarrhea, genital mycotic infections and volume depletion: more common
[2]; median follow-up 16 months
  rate of deaths from cardiovascular causes: 2.2 per 100 patient-years
[2]; vs placebo
  50% decline in eGFR (sustained or last value), HR (95% CI): 0.60 (0.45, 0.81)
  End-stage kidney disease, HR (95% CI): 0.63 (0.45, 0.91)
  Renal death, HR (95% CI): 1.59 (0.52, 4.86)
  eGFR <15 mL/min/m^2 (sustained or last value), HR (95% CI): 0.60 (0.41, 0.88)
[2]; vs placebo, 95% CI 0.63 to 0.88
  primary end point hazard ratio: 0.74
[2]; vs placebo, 95% CI 0.66 to 0.91
  hazard ratio, original coprimary end point: first occurrence of death from cardiovascular causes or hospitalization for heart failure: 0.77
[2]; vs placebo, 95% CI 0.72 to 0.99
  hazard ratio, original coprimary end point: first occurrence of death from cardiovascular causes, nonfatal myocardial infarction, or nonfatal stroke: 0.84
[2]; vs placebo, T2D and CKD
  First event in composite, HR (95% CI): 0.77 (0.65, 0.91)

From patent US20250108032A1, “METHODS OF TREATING TYPE 1 DIABETES AND KIDNEY DISEASE” (LEXICON PHARMACEUTICALS, INC., priority 2023, published 2025)
